Earlier results on one molecule are cited in US10029078B2, “Pancreas perfusion apparatus, method for controlling same, and method for pancreas perfusion” (KOSEI ADVANCE CO., LTD., priority 2013, dated 2018).

The test system of the series is unresectable pancreatic cancer. The settings on record: patients with unresectable pancreatic cancer, systemic chemotherapy.

In the case of `Nc1ccn([C@@H]2O[C@H](CO)[C@@H](O)C2(F)F)c(=O)n1` [gemcitabine], the median survival time result is “approximately 6 months” and the response rate result was “approximately 10%”.
